In US20130316965A1, “IDRABI[…] THE TREATMENT OF PULMONARY EMBOLISM AND FOR THE SECONDARY PREVENTION OF VENOUS THRO[…]” (priority 2011, published 2013):

Experiments:
Assay type in all cases: in vivo, human
[1] = test system: patients with symptomatic pulmonary embolism with or without symptomatic deep venous thrombosis; experiment: CASSIOPEA (EFC6034) phase III clinical trial: clinically relevant bleeding (safety); details: for Hazard ratio, clinically relevant bleeding: idrabiotaparinux vs warfarin
Source text: According to the instant invention, the term “bleedings” designates any clinically relevant bleeding (i.e. major or clinically relevant non-major hemorrhage).
According to the instant invention, the term “major bleedings” designates any of the following clinical situations: • bleeding associated with a fall in hemoglobin of 2 g per deciliter or more, • bleeding that led to a transfusion of 2 or more units of packed red cells or whole blood (a red cell unit being defined as the quantity of red cells obtained from or corresponding to approximately 500 ml of whole blood), • bleeding that involved a critical organ (intracranial, intraocular, intraspinal, retroperitoneal or pericardial), • bleeding that contributed to death.
(§1) A blinded central and independent adjudication committee (CIAC) assesses PE (and DVT when applicable), all episodes of locally confirmed or doubtful PE/DVT recurrences, clinically relevant bleedings and deaths. Adjudication results are the basis for the final analyses.
The principal safety outcome is any clinically relevant bleeding as classified by the CIAC (i.e. major bleeding and other clinically relevant non-major bleeding).
Bleeding analyses are also performed on the—All-randomized—population. Other safety analyses are performed on the—All-treated—population.
Rates of clinically relevant bleedings are calculated in each treatment group at 3 months (99 days) and 6 months (190 days) and compared between treatment groups using a Mantel-Haenszel chi-square stratified on intended treatment duration. Cumulative incidences of clinically relevant bleedings during the combined 3-month and 6-month period and up to the end of study are described by treatment group using the Kaplan Meier method.

[2] = test system: patients with symptomatic pulmonary embolism with or without symptomatic deep venous thrombosis; experiment: CASSIOPEA (EFC6034) phase III clinical trial: symptomatic recurrent PE/DVT (efficacy); details: for Hazard ratio, symptomatic recurrent PE/DVT: idrabiotaparinux vs warfarin
Protocol: Patients with confirmed symptomatic PE with or without acute symptomatic DVT are eligible for this trial. Treatment with a therapeutic dose of any LMWH or UFH or fondaparinux is allowed only within the 36 hours immediately preceding randomization. Randomization is performed as soon as the diagnosis of PE (and DVT if concomitant suspected symptomatic DVT) is confirmed.
as §1
Patients in the 3-month stratum have an additional 13-week observational period after cessation of study treatment. Patients in the 6-month stratum have a 13-week up to 26-week observational period.
Injections of SSR126517E (or its placebo) is started 12 h after the last post-randomization enoxaparin administration. SSR126517E (or its placebo) is administered s.c. once-weekly for a period of 3 or 6 months. All patients receive a first 0.5 ml injection (3.0 mg in the SSR126517E group). The following injections are also 0.5 ml, except in patients with severe renal insufficiency (defined as creatinine clearance <30 mL/min), who decrease to a dosage of 0.3 ml (1.8 mg in the SSR126517E group).
The primary efficacy outcome is symptomatic recurrent PE/DVT (fatal or not), as validated by the CIAC, within 99 days for patients from both strata (3- and 6-month treatments).
A secondary efficacy outcome for patients in the 6-month stratum is symptomatic recurrent PE/DVT, as validated by the CIAC, within 190 days.
There are 2 additional efficacy outcomes: • the time to first symptomatic recurrent PE/DVT (fatal or non fatal) within the patient's treatment period, i.e. a combined analysis of the 3-and 6-month strata patients; • the separate components of the efficacy outcomes within 99 days (all patients) and within 190 days (6-month stratum patients only).
The definitions to confirm a suspected symptomatic episode of recurrent PE/DVT are as follows:
Efficacy analyses are performed on the—All-randomized—population (patients with a patient number and an allocated treatment number recorded in the IVRS database).
The secondary efficacy outcome (VTE recurrence within 190 days) for patients in the 6-month stratum is analyzed using the same method and applying the same non-inferiority margin.
Time to first symptomatic recurrent PE/DVT within the patient's study treatment period for all patients is analyzed using Cox's proportional hazards model, stratified on intended treatment duration.

[3] = test system: patients with symptomatic pulmonary embolism with or without symptomatic deep venous thrombosis; experiment: CASSIOPEA (EFC6034) phase III clinical trial: deaths; details: overall
Source text: as §1

[4] = test system: patients with symptomatic pulmonary embolism with or without symptomatic deep venous thrombosis; experiment: CASSIOPEA (EFC6034) phase III clinical trial: benefit-risk assessment (PE, DVT or major bleeding composite); details: Randomized population
Source text: Tables 13 and 14 show the incidence of pulmonary embolism, deep venous thrombosis or major bleedings (composite endpoint) in the randomized population in the treatment phase (3-month or 6-month treatment with idrabiotaparinux) and up to the end of the study (assessment at 12 months).

[5] = Randomized population in the 6-month stratum
[6] = combined 3-month and 6-month period
[7] = combined 3-month and 6-month periods, time-to-event analysis (Kaplan-Meier)
[8] = treatment period plus 3 to 6-month post-treatment follow-up (up to end of study)
[9] = Randomized population, All patients
[10] = Randomized population, Patients with VKA beyond D99/D190
[11] = Randomized population, Patients with no VKA beyond D99/D190
[12] = Randomized population, or death for which PE could not be ruled out
[13] = Cox proportional hazards model, stratified

In the case of `CO[C@H]1O[C@H](COS(=O)(=O)O)[C@@H](O[C@@H]2O[C@@H](C(=O)O)[C@@H](O[C@H]3O[C@H](COS(=O)(=O)O)[C@@H](O[C@@H]4O[C@H](C(=O)O)[C@@H](O[C@H]5O[C@H](COS(=O)(=O)O)[C@@H](OC)[C@H](OC)[C@H]5NC(=O)CCCCCNC(=O)CCCC[C@@H]5SC[C@@H]6NC(=O)N[C@@H]65)[C@H](OC)[C@H]4OC)[C@H](OS(=O)(=O)O)[C@H]3OS(=O)(=O)O)[C@H](OC)[C@H]2OC)[C@H](OS(=O)(=O)O)[C@H]1OS(=O)(=O)O` [Idrabiotaparinux, idrabiotaparinux], the “Any clinically relevant bleeding within 190 days: Idrabiotaparinux vs. Warfarin odds ratio” value ([1]; 6-month stratum) is reported as 0.81, the “Clinically relevant bleedings up to Day 190” value ([1]; 6-month stratum) is reported as 6.6% and the “Fatal bleeding within 190 days from randomization: Patients with event” value ([1]; 6-month stratum) is reported as 7 (0.6%) n (%). For the same molecule, the “Fatal bleeding within 190 days: Idrabiotaparinux to Warfarin odds ratio (95% CI)” value ([1]; 6-month stratum) was 1.40 (0.44 to 4.42), the “Intracranial haemorrhage (fatal or not) within 190 days from randomization: Patients with event” value ([1]; 6-month stratum) was 8 (0.6%) n (%) and the “Intracranial haemorrhage (fatal or not) within 190 days: Idrabiotaparinux to Warfarin odds ratio (95% CI)” value ([1]; 6-month stratum) was 1.33 (0.46 to 3.85). For the same molecule, the “Major bleeding within 190 days from randomization: Patients with event” value ([1]; 6-month stratum) was 24 (1.9%) n (%), the “Major bleeding within 190 days: Idrabiotaparinux to Warfarin odds ratio (95% CI)” value ([1]; 6-month stratum) was 0.66 (0.39 to 1.11) and the “Patients who experienced a major bleeding up to Day 190” value ([1]; 6-month stratum) was 1.9%. For the same molecule, the “Any clinically relevant bleeding within 99 days from randomization: Patients with event” value ([1]; Randomized population) was 72 (4.5%) n (%), the “Fatal bleeding within 99 days from randomization: Patients with event” value ([1]; Randomized population) was 3 (0.2%) n (%) and the “Fatal bleeding within 99 days: Idrabiotaparinux to Warfarin odds ratio (95% CI)” value ([1]; Randomized population) was 0.50 (0.13 to 2.01). For the same molecule, the “Intracranial haemorrhage (fatal or not) within 99 days from randomization: Patients with event” value ([1]; Randomized population) was 4 (0.3%) n (%), the “Intracranial haemorrhage (fatal or not) within 99 days: Idrabiotaparinux to Warfarin odds ratio (95% CI)” value ([1]; Randomized population) was 0.57 (0.17 to 1.96) and the “Major bleeding within 99 days from randomization: Patients with event” value ([1]; Randomized population) was 20 (1.3%) n (%). For the same molecule, the “Major bleeding within 99 days: Idrabiotaparinux to Warfarin odds ratio (95% CI)” value ([1]; Randomized population) was 0.51 (0.30 to 0.88), the “Any clinically relevant bleeding within 190 days from randomization: Patients with event” value [1, 5] was 84 (6.6%) n (%) and the “Any clinically relevant bleeding within 99 days: Idrabiotaparinux vs. Warfarin odds ratio” value ([1]; Randomized population, Mantel-Haenszel, stratified) was 0.67. The “Major bleeding within 99 days: Idrabiotaparinux to Warfarin odds ratio (95% CI)” value ([1]; Randomized population, listed as idrabiotaparinux) was 0.51, the “Hazard ratio, clinically relevant bleeding” value [1, 6] was 0.70 and the “Cumulative incidence of clinically relevant bleeding at Day 99” value [1, 7] was 4.6%. The “Cumulative incidence of clinically relevant bleeding at Day 190” value [1, 7] was 6.6%, the “Cumulative incidence rate of clinically relevant bleeding at Day 360” value [1, 8] was 8.3% and the “Incidence of clinically relevant bleeding up to Day 99” value ([1]; up to Day 99) was 4.5%. The “Patients who experienced a major bleeding up to Day 99” value ([1]; up to Day 99) was 1.3%, the “Hazard ratio, clinically relevant bleeding” value ([1]; up to the end of study) was 0.79 and the “DVT only within 190 days from randomization: Patients with event” value ([2]; 6-month stratum) was 7 (0.6%) n (%). The “Non-fatal PE within 190 days from randomization: Patients with event” value ([2]; 6-month stratum) was 9 (0.7%) n (%), the “Symptomatic recurrent PE/DVT (fatal or not) from randomization to end of study: Patients with event” value ([2]; 6-month stratum, All patients) was 37 (2.9%) n (%) and the “Symptomatic recurrent PE/DVT (fatal or not) from randomization to end of study: Patients with event” value ([2]; 6-month stratum, Patients with VKA beyond D190) was 10 (3.2%) n (%). For the same molecule, the “Symptomatic recurrent PE/DVT (fatal or not) from randomization to end of study: Patients with event” value ([2]; 6-month stratum, Patients with no VKA beyond D190) was 27 (2.8%) n (%), the “Reducing the risk of symptomatic recurrent PE/DVT up to Day 190 (non-inferiority)” value ([2]; 6-month stratum, non-inferiority margin 2.0) was “at least as effective as warfarin” and the “Fatal PE within 190 days from randomization: Patients with event” value ([2]; 6-month stratum, or death for which PE could not be ruled out) was 13 (1.0%) n (%). For the same molecule, the “Patients who experienced DVT up to Day 190” value ([2]; 6-month stratum, up to Day 190) was 0.6%, the “DVT only up to the end of study: Patients with event” value ([2]; Randomized population) was 10 (0.6%) n (%) and the “DVT only within 99 days from randomization: Patients with event” value ([2]; Randomized population) was 5 (0.3%) n (%). The “Non-fatal PE up to the end of study: Patients with event” value ([2]; Randomized population) was 16 (1.0%) n (%), the “Non-fatal PE within 99 days from randomization: Patients with event” value ([2]; Randomized population) was 13 (0.8%) n (%) and the “Symptomatic recurrent PE/DVT (fatal or not) within 190 days from randomization: Patients with event” value [2, 5] was 29 (2.3%) n (%). For the same molecule, the “Symptomatic recurrent PE/DVT within 190 days: Idrabiotaparinux vs. Warfarin odds ratio” value [2, 5] was 0.80, the “Symptomatic recurrent PE/DVT (fatal or not) from D100/D191 to end of study: Patients with event” value [2, 9] was 9 (0.6%) n (%) and the “Symptomatic recurrent PE/DVT (fatal or not) from randomization to end of study: Patients with event” value [2, 9] was 48 (3.0%) n (%). The “Symptomatic recurrent PE/DVT within 99 days: Idrabiotaparinux vs. Warfarin odds ratio” value ([2]; Randomized population, Mantel-Haenszel, stratified on intended treatment duration) was 0.79, the “Symptomatic recurrent PE/DVT (fatal or not) from D100/D191 to end of study: Patients with event” value [2, 10] was 4 (1.0%) n (%) and the “Symptomatic recurrent PE/DVT (fatal or not) from randomization to end of study: Patients with event” value [2, 10] was 12 (3.1%) n (%). For the same molecule, the “Symptomatic recurrent PE/DVT (fatal or not) from D100/D191 to end of study: Patients with event” value [2, 11] was 5 (0.5%) n (%), the “Symptomatic recurrent PE/DVT (fatal or not) from randomization to end of study: Patients with event” value [2, 11] was 36 (3.0%) n (%) and the “Fatal PE up to the end of study: Patients with event” value [2, 12] was 22 (1.4%) n (%). The “Fatal PE within 99 days from randomization: Patients with event” value [2, 12] was 16 (1.0%) n (%), the “Symptomatic recurrent PE/DVT (fatal or not) within 99 days from randomization: Patients with event” value ([2]; Randomized population, within 99 days) was 34 (2.1%) n (%) and the “Reducing the risk of symptomatic recurrent PE/DVT up to Day 99 (non-inferiority)” value ([2]; all randomized population, non-inferiority margin 2.0) was “at least as effective as warfarin”. The “Hazard ratio, symptomatic recurrent PE/DVT” value [2, 6] was 0.77, the “Cumulative incidence of symptomatic recurrent PE/DVT at Day 99” value [2, 7] was 2.2% and the “Cumulative incidence of symptomatic recurrent PE/DVT at Day 190” value [2, 7] was 2.6%. The “Cumulative incidence rate of symptomatic recurrent PE/DVT at Day 360” value [2, 8] was 3.1%, the “Patients who experienced DVT up to Day 99” value ([2]; up to Day 99) was 0.3% and the “Patients who experienced DVT up to the end of study” value ([2]; up to the end of study) was 0.6%. The “Patients who experienced non-fatal PE up to the end of study” value ([2]; up to the end of study) was 1.0%, the “Hazard ratio, symptomatic recurrent PE/DVT” value ([2]; up to the end of the study) was 0.49 and the “Risk reduction in the occurrence of symptomatic recurrent PE/DVT” value ([2]; up to the end of the study, vs warfarin) was 51%. The “Patients who died on study” value [3] was 5.9%, the “PE, DVT or major bleeding in the combined 3-month and 6-month period: Idrabiotaparinux vs. Warfarin Odds ratio” value [4, 13] was 0.66 and the “PE, DVT or major bleeding up to the end of study: Idrabiotaparinux vs. Warfarin Odds ratio” value [4, 13] was 0.54. For the same molecule, the “PE, DVT or major bleeding in the combined 3-month and 6-month period: Patients with event” value ([4]; composite endpoint) was 65 (4.1%) n (%) and the “PE, DVT or major bleeding up to the end of study: Patients with event” value ([4]; composite endpoint) was 82 (5.1%) n (%).
